{"source": "patent US20250375453A1", "about": "“HIGH-EFFICIENCY ANTIMICROBIAL COMPOSITION” (CM4CURE S.A., priority 2023, published 2025)", "key": {"[1]": {"system": "Pseudomonas aeruginosa (ATCC 15442)", "experiment": "Real-time microcalorimetric measurement of bacterial metabolic activity (heat flow, Calscreener)", "assay_type": "cell-based", "settings": "chlorhexidine digluconate alone, tested 1-24 mg/L, TSB, 37 C, 24 h or more", "protocol": "Pseudomonas aeruginosa (ATCC 15442) was grown overnight in TSB (tryptic soy broth) medium, before being diluted 1×10^7 fold in fresh TSB. Subsequently […] aliquots of diluted bacteria suspensions were respectively supplemented with 1, 2, 4, 6, 12 and 24 mg/L of chlorhexidine (digluconate solution, 20% in H2O, Merck). The aqueous solution of chlorhexidine was kept refrigerated according to the manufacturer's technical sheet. Chlorhexidine or mQH2O as a vehicle were added to the bacterial suspensions to obtain the given concentrations followed by a brief vortexing. Bacterial aliquots were then distributed in the dedicated non-activated inserts of a 48-well plate and grown for 24h or more under static conditions at 37 C using Calscreener technology to measure bacterial growth and metabolic activity in Real-Time as described in https://cordis.europa.eu/project/id/784514.\nFor the study of the combination of chlorhexidine and triafluocyl aforementioned diluted bacterial suspensions were supplemented with either chlorhexidine alone (1, 2, 4, 6, 12 mg/L) or mixed with triafluocyl (20 mg/L, Polpharma). Triafluocyl was stored in absolute ethanol in the refrigerator at a concentration of 3 mg/mL. Triafluocyl, chlorhexidine or both, and ethanol as a vehicle were added to the bacterial suspensions to obtain the given concentrations.\nPseudomonas aeruginosa (ATCC 15442) was grown overnight in TSB (tryptic soy broth) medium, before being diluted 1×10^7 fold in fresh TSB. Subsequently […] aliquots of diluted bacteria suspensions were respectively supplemented with […] of alexidine dihydrochloride (stock solution of 3 mg/mL in ethanol, Merck). […] The stock solutions of alexidine and fluometacyl were kept frozen according to the manufacturer's technical sheet. Alexidine alone or with fluometacyl, and ethanol as a vehicle were added to the bacterial suspensions to obtain the given concentrations followed by a brief vortexing. […]"}, "[2]": {"system": "Staphylococcus aureus (MRSA, ATCC 6538)", "experiment": "Real-time microcalorimetric measurement of bacterial metabolic activity (heat flow, Calscreener)", "assay_type": "cell-based", "protocol": "Staphylococcus aureus (MRSA, ATCC 6538) was grown overnight in TSB (tryptic soy broth) medium, before being diluted 1×10^6 fold in fresh TSB. Subsequently […] aliquots of diluted bacteria suspensions were respectively supplemented with 1 and 2 mg/L of chlorhexidine (digluconate solution, 20% in H2O, Merck). […] The aqueous solution of chlorhexidine and the ethanol-based solution of triafluocyl were kept refrigerated. Chlorhexidine, triafluocyl or both, and ethanol as a vehicle were added to the bacterial suspensions to obtain the given concentrations followed by a brief vortexing. Bacterial aliquots were then distributed in the dedicated non-activated inserts of a 48-well plate and grown for 24 h or more under static conditions at 37 C using Calscreener technology to measure bacterial growth and metabolic activity in Real-Time as described in https://cordis.europa.eu/project/id/784514.\nStaphylococcus aureus (MRSA, ATCC 6538) was grown overnight in TSB (tryptic soy broth) medium, before being diluted 1×10^6 fold in fresh TSB. Subsequently […] aliquots of diluted bacteria suspensions were respectively supplemented with 0.25, 0.5 and 1 μg/mL of chlorhexidine (digluconate solution, 20% in H2O, Merck) or alexidine dihydrochloride (stock solution of 3 mg/mL in ethanol, Merck).\nThe aqueous solution of chlorhexidine and the ethanol-based solution of alexidine were kept refrigerated. Chlorhexidine, alexidine, and ethanol as a vehicle were added to the bacterial suspensions to obtain the given concentrations followed by a brief vortexing. Bacterial aliquots were then distributed in the dedicated non-activated inserts of a 48-well plate and grown for 24 h or more under static conditions at 37 C using Calscreener technology to measure bacterial growth and metabolic activity in Real-Time as described in https://cordis.europa.eu/project/id/784514.\nStaphylococcus aureus (MRSA, ATCC 6538) was grown overnight in TSB (tryptic soy broth) medium, before being diluted 1×10^6 fold in fresh TSB. Subsequently […] aliquots of diluted bacteria suspensions were respectively supplemented with […] of alexidine dihydrochloride (stock solution of 3 mg/mL in ethanol, Merck). […] The ethanol-based solutions of alexidine and fluometacyl were stored at −20° C.\nAlexidine alone or with fluometacyl, and ethanol as a vehicle were added to the bacterial suspensions to obtain the given concentrations followed by a brief vortexing. Bacterial aliquots were then distributed in the dedicated non-activated inserts of a 48-well plate and grown for 24 h or more under static conditions at 37 C using Calscreener technology to measure bacterial growth and metabolic activity in Real-Time."}, "[3]": {"system": "Staphylococcus aureus MSSA", "settings": "cited from earlier work"}, "Lactobacillus fermentum": {"system": "Lactobacillus fermentum", "settings": "cited from earlier work"}, "Fusobacterium nucleatum": {"system": "Fusobacterium nucleatum", "settings": "cited from earlier work"}, "Candida albicans": {"system": "Candida albicans", "settings": "cited from earlier work"}, "Candida tropicalis": {"system": "Candida tropicalis", "settings": "cited from earlier work"}, "Candida krusei": {"system": "Candida krusei", "settings": "cited from earlier work"}, "[4]": {"settings": "chlorhexidine base; cited from earlier work"}}, "data": [{"smiles": "[H]/N=C(\\N/C(=N/[H])NCCCCCCNC(=N)NC(=N)Nc1ccc(Cl)cc1)Nc1ccc(Cl)cc1", "note": "[Chlorhexidine, chlorhexidine]", "values": [{"measurement": "concentration that fully inhibits bacterial proliferation", "setting": "[1]", "result": 24, "unit": "mg/L"}, {"measurement": "effect on metabolic activity (heat flow)", "setting": "[2]; chlorhexidine 1 mg/L alone", "result": "strong shift in a metabolic activity"}, {"measurement": "effect on metabolic activity (heat flow)", "setting": "[2]; chlorhexidine 1 mg/mL alone (Example 3)", "result": "strong shift in a metabolic activity"}, {"measurement": "concentration with full growth inhibition or bactericidal effect", "setting": "[2]; chlorhexidine digluconate alone, tested 1 and 2 mg/L", "result": 2, "unit": "mg/L"}, {"measurement": "MIC of chlorhexdine", "setting": "[3]", "result": "0.25 to 8", "unit": "µg/mL"}, {"measurement": "MIC of chlorhexdine", "setting": "Lactobacillus fermentum", "result": "0.25 to 1", "unit": "µg/mL"}, {"measurement": "MIC of chlorhexdine", "setting": "Fusobacterium nucleatum", "result": 1.8, "unit": "µg/mL"}, {"measurement": "MIC of chlorhexdine", "setting": "Candida albicans", "result": "1 to 16", "unit": "µg/mL"}, {"measurement": "MIC of chlorhexdine", "setting": "Candida tropicalis", "result": 75, "unit": "µg/mL"}, {"measurement": "MIC of chlorhexdine", "setting": "Candida krusei", "result": 150, "unit": "µg/mL"}, {"measurement": "solubility in water", "setting": "[4]", "result": "insoluble in water"}]}]}
